Measured values from US20030215516A1, “Process for production of crystals of a medicinally effective ingredient, crystals obtained thereby and pharmaceutical preparations containing them” (priority 2002, published 2003).
Read-outs that look alike come from different tables or passages of the source.

Legend:
[1] = Particle size distribution (Sympatec HELOS, dry dispersion); assay type: physicochemical
Text: Particle Size Distribution:
Sympatec HELOS (H0445), dry dispersion system (RODOS), pressure 2 bar

[2] = Active ingredient release from 1 mg capsule / 1 mg tablet; assay type: physicochemical; conditions: micronized J956, 0.3% SDS in water
Procedure: The release values were compared in a test medium, which comprises 0.3% SDS in water, with paddle stirring, 100 rpm.
Active Ingredient Release:
Active ingredient release measured in 1000 mL water with 0.3% sodium dodecyl sulfate, 100 rpm
Content Determination by HPLC with external calibration
(§1) Column: LiChrosphere 5μ RP-18 encapped, 150×3 mm
(§2) Eluent: acetonitrile/water=45/55

[3] = micronized J956
Text: Content Determination according to USP/Ph. Eur. for individual capsules after elution through HPLC with external calibration
as §1, §2

[4] = Example 6, primary particle size
[5] = Example 4, primary particle size
[6] = Example 7, primary particle size

C#C[C@]1(OC(C)=O)CC[C@H]2[C@@H]3CCC4=CC(=O)CC[C@@H]4[C@H]3CC[C@@]21C [norethisterone acetate, reference compound]
Particle size X10 ([1]; Example 6, end): 8.5 μm | Particle size X50 ([1]; Example 6, end): 30.4 μm | Particle size X99 ([1]; Example 6, end): 87 μm | Particle size X100 ([1]; Example 6, end): 100 μm | Particle size X10 [1, 4]: 4 μm | Particle size X50 [1, 4]: 14 μm | Particle size X99 [1, 4]: 55 μm | Particle size X100 [1, 4]: 87 μm

CCCCCCCCCCC(=O)O[C@H]1CC[C@H]2[C@@H]3CCC4=CC(=O)CC[C@]4(C)[C@H]3CC[C@]12C [testosterone undecanoate, reference compound]
Particle size X10 ([1]; Example 4, 1st cycle): 17 μm | Particle size X50 ([1]; Example 4, 1st cycle): 41 μm | Particle size X99 ([1]; Example 4, 1st cycle): 100 μm | Particle size X100 ([1]; Example 4, 1st cycle): 120 μm | Particle size X10 [1, 5]: 6 μm | Particle size X50 [1, 5]: 21 μm | Particle size X99 [1, 5]: 100 μm | Particle size X100 [1, 5]: 120 μm

CCNC(=O)ON=Cc1ccc(C2CC3(C)C(CCC3(COC)OC)C3CCC4=CC(=O)CCC4=C23)cc1 (stereo not drawn) [Micronizate, 11β-{4-[(ethylaminocarbonyl)oximinomethyl]phenyl}-17β-methoxy-17α-methoxymethyl-estra-4,9-dien-3-one, reference compound]
RELEASE in % ([2]; 1 mg capsule, 0 min, paddle 100 rpm): 0% | RELEASE in % ([2]; 1 mg capsule, 10 min, paddle 100 rpm): 92.1% | RELEASE in % ([2]; 1 mg capsule, 20 min, paddle 100 rpm): 94.3% | RELEASE in % ([2]; 1 mg capsule, 30 min, paddle 100 rpm): 94.6% | RELEASE in % ([2]; 1 mg capsule, 45 min, paddle 100 rpm): 94.9% | RELEASE in % ([2]; 1 mg tablet, 0 min, paddle, 100 rpm): 0% | RELEASE in % ([2]; 1 mg tablet, 10 min, paddle, 100 rpm): 92.1% | RELEASE in % ([2]; 1 mg tablet, 20 min, paddle, 100 rpm): 94.3% | RELEASE in % ([2]; 1 mg tablet, 30 min, paddle, 100 rpm): 94.6% | RELEASE in % ([2]; 1 mg tablet, 45 min, paddle, 100 rpm): 94.9% | CUT value spread: Confidence Interval % ([3]; 1 mg capsule): 1.72% | CUT value spread: RSD, % ([3]; 1 mg capsule): 2.56% | CUT value spread: Confidence Interval % ([3]; 1 mg tablet): 1.72% | CUT value spread: RSD, % ([3]; 1 mg tablet): 2.56%

C[C@]1(O)CC[C@H]2[C@@H]3CCC4=CC(=O)CC[C@@H]4[C@H]3CC[C@@]21C [methylnortestosterone, reference compound]
Particle size X10 [1, 6]: 1.32 μm | Particle size X50 [1, 6]: 3.96 μm | Particle size X99 [1, 6]: 14 μm | Particle size X100 [1, 6]: 18 μm | Particle size X10 ([1]; Example 7, spray-dried): 1.36 μm | Particle size X50 ([1]; Example 7, spray-dried): 3.94 μm | Particle size X99 ([1]; Example 7, spray-dried): 14 μm | Particle size X100 ([1]; Example 7, spray-dried): 18 μm
